In PubChem BioAssay (NCI):
“And” between values parts separate entries of the source, which are not always exact repeats. Identical values can stand only once.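 Where inhibition never reached the appropriate level, the endpoint shown equals the highest concentration tested. Otherwise, values were interpolated linearly from a five-concentration, 48-hour dose response in 96-well plates. GI50: concentration for 50% inhibition of growth. Definition used: TGI = concentration required for complete inhibition of growth.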

Tests used:
Assay in all cases: inhibition of tumour cell growth, NCI panel, 48 h
SN12C renal = system: SN12C renal
MCF7 breast = system: MCF7 breast
CCRF-CEM leukemia = system: CCRF-CEM leukemia
SK-MEL-28 melanoma = system: SK-MEL-28 melanoma
SW-620 colon = system: SW-620 colon
SR leukemia = system: SR leukemia
SF-268 CNS = system: SF-268 CNS
NCI-H23 lung = system: NCI-H23 lung
PC-3 prostate = system: PC-3 prostate
DU-145 prostate = system: DU-145 prostate

SMILES | GI50 (SN12C renal) [µM] | TGI (SN12C renal) | GI50 (MCF7 breast) [µM] | TGI (MCF7 breast) | GI50 (CCRF-CEM leukemia) [µM] | TGI (CCRF-CEM leukemia) | GI50 (SK-MEL-28 melanoma) [µM] | TGI (SK-MEL-28 melanoma) | GI50 (SW-620 colon) [µM] | TGI (SW-620 colon) | GI50 (SR leukemia) [µM] | TGI (SR leukemia) [µM] | GI50 (SF-268 CNS) [µM] | TGI (SF-268 CNS) | GI50 (NCI-H23 lung) [µM] | TGI (NCI-H23 lung) | GI50 (PC-3 prostate) [µM] | TGI (PC-3 prostate) | GI50 (DU-145 prostate) [µM] | TGI (DU-145 prostate)
Cc1cc(NC(=O)c2ccc(NS(=O)(=O)CCO)cc2N2CCC3(CC2)CC3)nc(N2CCC(F)(F)CC2)n1 | 11.7 | 24.4 µM | 8.33 | 25.2 µM | 10 | > 66 µM | 16.8 | 30.7 µM | 13.1 | 27.1 µM | 1.68 | 25.3 | 13.1 | 29 µM | 12.6 | 26.6 µM | 7.46 | 23.6 µM | 0.0531 | 15.8 µM
COc1ccc(C(=S)c2cc(OC)c(OC)c(OC)c2)cc1OC(=O)CCl | 0.0241 | > 100 µM | < 0.0156 | 43.5 µM | < 0.0167 | > 100 µM | – | – | < 0.0146 | > 100 µM | < 0.01 | > 100 | 0.054 | > 100 µM | 0.051 | > 100 µM | < 0.0172 | > 100 µM | 0.0311 | > 100 µM
Nc1ncc(-c2cnn(C3CCNCC3)c2)cc1-c1nc2ccccc2o1 | 0.478 | 4.41 µM | 0.441 | 2.13 µM | 0.235 | 0.677 µM | 1.74 | 3.17 µM | 1.09 | 2.38 µM | 0.266 | 1.09 | 1.74 | 4.58 µM | 1.35 | 12.7 µM | 1.59 | 6.68 µM | 1.75 | 8.86 µM
CS(=O)(=O)CCNCc1ccc(-c2ccc3ncnc(Nc4ccc(OCc5ccccc5)c(C(F)(F)F)c4)c3c2)o1 | 5.22 | 12.3 µM | 4.55 | 9.59 µM | 7.29 | > 23.1 µM | 4.43 | 8.83 µM | 4.62 | 8.66 µM | 7.47 | 19.9 | 7.99 | > 25 µM | 6.37 | > 19.4 µM | 6.88 | > 21 µM | 10.3 | > 25 µM
COc1ccc(OC)c(/C=C/c2nnc(Nc3ccc(Cl)cc3)o2)c1 | 4.21 | > 100 µM | 20.7 | > 100 µM | > 100 | > 100 µM | 26.8 | > 100 µM | 18.3 | > 100 µM | 48.2 | > 100 | 7.6 | 37.9 µM | 21.7 | > 100 µM | 13.3 | 76 µM | 11.4 | 36.9 µM
O=C1C2CC3C(CC2C(=O)[N]1[Sn]([c]1ccccc1)([c]1ccccc1)[c]1ccccc1)C1(Cl)C(Cl)=C(Cl)C3(Cl)C1(Cl)Cl (stereo not given) | 0.17 | 0.448 µM | 0.0376 | 0.154 µM | 0.0645 | 0.371 µM | 0.144 | 0.295 µM | 0.0636 | 0.216 µM | 0.102 | 0.532 | 0.111 | 0.286 µM | 0.15 | 0.388 µM | 0.0958 | 0.315 µM | 0.0701 | 0.2 µM
CCCCCCCCCCCCCCCCC1=CC(=O)C=C(OC)C1=O | – | > 100 µM | – | > 100 µM | – | > 100 µM | – | > 100 µM | – | > 100 µM | – | 92.7 | – | > 100 µM | – | > 100 µM | – | > 100 µM | – | > 100 µM
O=c1ncc(-c2ccc(C(F)(F)F)cc2)c(NC2CCCCCC2)[nH]1 | 16.2 | 33 µM | 16.2 | 56.4 µM | 19.7 | 48 µM | 17 | 33.9 µM | 23.9 | 68.7 µM | 16.3 | 38.3 | 18.4 | 36.5 µM | 29.4 | 90.9 µM | 19 | 54.9 µM | 31.6 | 98.1 µM
C/C(=C\c1ccn(-c2ccc(N)c(C(F)(F)F)c2)n1)[C@@H]1C[C@@H]2O[C@]2(C)CCC[C@H](C)[C@H](O)[C@@H](C)C(=O)C(C)(C)[C@@H](O)CC(=O)O1 | 0.0237 | > 32.5 µM | 0.00385 | > 16 µM | 0.0117 | > 32.5 µM | 3.87 | > 32.5 µM | 0.00743 | > 32.5 µM | 0.00813 | 8.64 | 0.0349 | > 32.5 µM | 0.0221 | > 32.5 µM | 0.0119 | > 31 µM | 0.0113 | 0.0969 µM
CCOC(=O)[C@H](CSSc1ncnc2cc[nH]c12)NC(=O)[C@@H](C)c1ccc2cc(OC)ccc2c1 | 3.98 | > 100 µM | 0.122 | > 100 µM | 0.532 | > 100 µM | 13.8 | > 100 µM | 1.64 | > 100 µM | 0.385 | > 100 | 2.74 | > 100 µM | 2.18 | > 100 µM | 2.78 | > 100 µM | 0.213 | > 100 µM
O=S(=O)(NCCNc1cc(-c2cn(-c3ccccc3)nc2-c2cccc(O)c2)ccn1)c1ccc(C(F)(F)F)cc1 | 2.31 | 5.49 µM | 2.29 | 9.78 µM | 3.27 | 8.05 µM | 2.71 | 9.83 µM | 3.55 | 12.9 µM | 1.31 | 4.29 | 3.42 | 17.3 µM | 2.97 | 15.4 µM | 2.47 | 10.9 µM | 4.44 | 15.9 µM
CN(C)CC/C=C1\c2ccccc2Sc2ccc(Cl)cc21 | 2.84 | 13.7 µM and 29.9 µM | 1.81 | 3.37 µM and 30.3 µM | 3.36 | 15.4 µM and 25.2 µM | 1.74 | 3.11 µM and 20.2 µM | 2.18 | 5.4 µM and 35.4 µM | 3.29 | 8.76 | 3.78 | 14.1 µM and 30.1 µM | 3.52 | 15.7 µM and 31.3 µM | 3.03 | 12.5 µM and 26 µM | 6.38 | 18.6 µM and 29.7 µM
O=C(O)C1C2C=CC(O2)C1C(=O)Nc1ccccc1 (stereo not given) | – | > 100 µM | – | > 100 µM | – | > 100 µM | – | > 100 µM | – | > 100 µM | – | > 100 | – | > 100 µM | – | > 100 µM | – | > 100 µM | – | > 100 µM
Cc1cc(Cl)ccc1Nc1sc(C(=O)c2cc3cc(Cl)ccc3o2)c(N)c1C#N | – | > 100 µM | – | 59.6 µM | – | > 52.8 µM | – | > 100 µM | – | > 69.9 µM | – | > 100 | – | 26.9 µM | – | 35.5 µM | – | > 100 µM | – | > 100 µM
COc1ccc(C(=O)/C=C/c2cc3ccccc3[nH]c2=O)cc1 | 21.1 | > 100 µM | 18.8 | > 96.1 µM | 22.3 | > 100 µM | 33.9 | > 67.4 µM | 18.4 | 33.2 µM | 17.3 | > 100 | 18.1 | 43 µM | 19.7 | > 53 µM | > 59.7 | > 100 µM | 17.8 | 41.9 µM
Nc1ccccc1NC(=O)c1ccc(CSc2nc(N3CCOCC3)c3cccn3n2)cc1 | 1.38 | > 100 µM | 0.335 | > 100 µM | 0.246 | > 100 µM | 1 | 31.3 µM | 0.44 | > 100 µM | 0.301 | > 100 | 0.732 | 10.5 µM | 1.52 | > 100 µM | 0.752 | 41.4 µM | 1.63 | 37.7 µM
N=c1nc(N)c2cc3c(N)nc(=N)c3cc12 | – | 23.5 µM | – | > 100 µM | – | 26.8 µM | – | 10.7 µM | – | 44 µM | – | 56.5 | – | 13.1 µM | – | > 100 µM | – | > 100 µM | – | > 100 µM
CCN(Cc1ccc(F)cc1)c1ccc(CO)c(Cl)c1 | 12.1 | 33.4 µM | 0.155 | 7.05 µM | 15.9 | 62.6 µM | 14.5 | 39.3 µM | 0.838 | > 41 µM | 15.3 | 51.5 | 19.8 | > 55.7 µM | 5.79 | 49.1 µM | 14.3 | 49.4 µM | 15.2 | > 49.2 µM
COc1cc2c(c(OC)c1OC)-c1ccc(OC)c(=O)cc1[C@@H](NC(=O)CCl)CC2 | < 0.0142 | > 51.5 µM | < 0.01 | 17.4 µM | < 0.01 | > 33.3 µM | 0.304 | 53.8 µM | < 0.01 | 12 µM | < 0.01 | > 95.7 | < 0.01 | 3.53 µM | < 0.01 | > 33 µM | < 0.01 | 30.9 µM | < 0.01 | < 0.01 µM
COc1ccc(-c2cc(-c3ccc(Nc4nc(Nc5ccc(Cl)cc5)nc(Nc5ccc(Cl)cc5)n4)cc3)no2)cc1 | 20.2 | > 100 µM | 7.86 | 47.5 µM | 3.27 | 11.6 µM | 11.7 | 41.4 µM | 11.3 | 25.6 µM | 2.06 | 6.5 | 9.3 | 38.2 µM | 11.7 | 28.1 µM | 3.65 | 25.5 µM | 11.4 | 36.3 µM
COc1cc2c(c(OC)c1OC)-c1ccc([O-])c(=O)cc1[C@@H](NC(C)=O)CC2.COc1cc2c(c(OC)c1OC)-c1ccc([O-])c(=O)cc1[C@@H](NC(C)=O)CC2.[Cu+2] | 4.97 | > 100 µM | 3.33 | > 100 µM | 3.33 | 19 µM | 7.82 | > 100 µM | 3.44 | > 100 µM | 1.54 | 6.89 | 3.89 | 22.7 µM | 3.73 | > 100 µM | 3.63 | > 100 µM | 2.7 | 7.21 µM
CCN1C(=O)N(CC)C2C1NN=c1s/c(=C3\C(=O)N(CCC(C)C)c4ccccc43)c(=O)n12 (stereo not given) | 2.01 | 4.99 µM | 0.412 | 41.9 µM | 2.66 | > 100 µM | 2.58 | > 100 µM | 1.08 | > 100 µM | 0.456 | > 100 | 2.8 | 20.5 µM | 1.9 | 5.47 µM | 2.91 | > 100 µM | 2.91 | 9.33 µM
O=c1oc2ccc(Cl)cc2c(=O)n1-c1ccc(Cl)cc1F | 0.431 | 3.78 µM | 0.593 | 23.8 µM | 1.7 | 10.4 µM | 0.379 | 2.29 µM | 0.652 | 9.02 µM | 0.462 | – | 0.419 | 7.07 µM | 0.326 | 1.79 µM | 0.812 | 5.04 µM | 0.846 | 24.7 µM
COc1cc(N2CCC(N3CCN(C)CC3)CC2)ccc1Nc1ncc(Cl)c(Nc2ccccc2P(C)(C)=O)n1 | 1.03 | > 100 µM | 0.414 | > 100 µM | 4.41 | 98 µM | 18.5 | > 100 µM | 1.71 | 19.6 µM | – | > 33.6 | 1.34 | 14 µM | 1.62 | > 100 µM | 4.19 | > 100 µM | 0.933 | 20.5 µM
COc1ccc(-c2coc3ncnc(N)c23)cc1 | > 25 | > 25 µM | > 25 | > 25 µM | > 25 | > 25 µM | > 25 | > 25 µM | > 25 | > 25 µM | > 25 | > 25 | > 25 | > 25 µM | > 25 | > 25 µM | > 25 | > 25 µM | > 25 | > 25 µM
O=C(O)C(=O)Cc1ccc2c(c1)OCO2 | – | > 100 µM | – | > 100 µM | – | 67.1 µM | – | > 100 µM | – | > 100 µM | – | > 100 | – | – | – | > 100 µM | – | > 100 µM | – | > 100 µM
